Here are results for 29 compounds from US10508077B2 (FORMA Therapeutics, Inc., priority 2015, dated 2019).

Each structure is given as a SMILES string.

In assay [1] the target is T1, Full length human recombinant HDAC8 protein (Homo sapiens, UniProt Q9BY41).
T1 construct: Full length human recombinant HDAC8 protein was expressed in baculoviral system; made in house
T1 sequence (Q9BY41 1-377): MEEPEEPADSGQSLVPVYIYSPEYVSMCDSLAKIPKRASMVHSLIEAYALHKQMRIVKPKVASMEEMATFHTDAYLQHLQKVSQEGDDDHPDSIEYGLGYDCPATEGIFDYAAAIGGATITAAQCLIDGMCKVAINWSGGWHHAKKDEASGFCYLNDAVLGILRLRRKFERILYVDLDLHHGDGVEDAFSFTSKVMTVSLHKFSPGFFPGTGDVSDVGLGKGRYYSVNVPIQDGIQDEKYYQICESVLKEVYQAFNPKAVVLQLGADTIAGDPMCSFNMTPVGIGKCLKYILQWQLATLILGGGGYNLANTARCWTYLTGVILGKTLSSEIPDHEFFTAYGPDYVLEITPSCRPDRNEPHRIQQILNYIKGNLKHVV
Briefly: In vitro histone deacetylase assay: enzymatic HDAC8 assay, electrophoretic mobility shift. In kind it is biochemical. Particulars: substrate RHKK(Ac)-NH2, 1 nM enzyme, compounds listed under IC50 range headings. In short, it runs like this:
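Readout was microfluidic mobility-shift separation of deacetylated product from fluorescent RHKK(Ac)-NH2 substrate (2 µM), after reaction with 1 nM recombinant full-length human HDAC8 at 25 °C, pH 7.5, stopped with SDS. Twelve 3-fold-spaced concentrations tested; product/sum ratios normalized to controls and fitted with a 4-parameter model for IC50.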

The target in assay [2] is T2, Recombinant N-terminal GST tag full-length human HDAC8 (Homo sapiens, UniProt Q9BY41).
T2 construct: Recombinant N-terminal GST tag full-length human HDAC8; purchased SignalChem H90-30G-1000; host or cells: Sf9 insect cells (baculovirus)
T2 sequence (Q9BY41 1-377): T1 sequence (Q9BY41 1-377)
Briefly: HDAC8 probe binding assay, time resolved fluorescence (TRF). Particulars: fluorescein labeled pan-HDAC inhibitor probe, 16 hours incubation, compounds listed under IC50 range headings. Here is the method: The HDAC8 probe binding assay was performed using a time resolved fluorescence (TRF) assay format. Recombinant N-terminal GST tag full-length human HDAC8 was expressed and purified from baculovirus in Sf9 insect cells (SignalChem, #H90-30G-1000), Each assay was performed in 1536 black well microplates (Corning, #3936) in a final volume of 4 μL in assay buffer containing 50 mM HEPES (pH 7.5), 50 mM KCl, 50 mM NaCl, 0.5 mM GSH (L-Glutathione reduced, Sigma #G4251), 0.03% BGG (0.22 μM filtered, Sigma, #G7516-25G), and 0.01% Triton X-100 (Sigma, #T9284-10L). 20 nL of 10-point, 3-fold serial dilution in DMSO was pre-dispensed into respective wells of 1536 assay plates for a final test concentration range of 25 μM to 1.3 nM respectively. The final concentration in the assay of HDAC8 and probe (a fluorescein labeled pan-HDAC inhibitor) was 2.5 nM and 1.5 nM respectively. 2 μL of 2× probe and 2× anti-GST Terbium (Cisbio, #61GSTXLB) was added to assay plates followed by 2 μL of 2× HDAC8. Plates were incubated for 16 hours at room temperature before time resolved fluorescence was read on the Envision (Excitation at 340 nm, and Emission at 485 nm and 535 nm, Perkin Elmer).
Data from HDAC8 Assays were reported as percent inhibition (inh) compared with control wells based on the following equation: % inh=1−((FLU−AveLow)/(AveHigh−AveLow)) where FLU=measured time resolved fluorescence. AveLow=average time resolved fluorescence of no enzyme control (n=32). AveHigh=average time resolved fluorescence of DMSO control (n=32). IC50 values were determined by curve fitting of the standard 4 parameter logistic fitting algorithm included in the Activity Base software package: IDBS XE Designer Model205. Data is fitted using the Levenburg Marquardt algorithm.

With `O=C(/C=C/c1ccccc1NCc1ccccn1)NO` [Example I-89], the IC50 (in general, the concentration that inhibits the measured activity by half) was less than 1000 nM in assay [1] and not above 1000 nM in assay [2].

With `O=C(/C=C/c1ccccc1NCc1nccs1)NO` [Example I-91, (E)-N-hydroxy-3-(2-((thiazol-2-ylmethyl)amino)phenyl)acrylamide], the figures for the IC50 in assay [1] and in assay [2] were less than 1000 nM and not above 1000 nM, respectively.

`O=C(/C=C/c1ccccc1NCc1cccnc1)NO` [Example I-93]: the IC50 in assay [1] is less than 1000 nM; in assay [2] it was not above 1000 nM.

Turning to `Cc1cc(CNc2ccccc2/C=C/C(=O)NO)n(C)n1` [Example I-94, (E)-3-(2-(((1,3-dimethyl-1H-pyrazol-5-yl)methyl)amino)phenyl)-N-hydroxyacrylamide], the IC50 is less than 1000 nM in assay [1] and not above 1000 nM in assay [2].

On to `CS(=O)(=O)c1ccc(CNc2ccccc2/C=C/C(=O)NO)cc1` [Example I-95, (E)-N-hydroxy-3-(2-((4-(methylsulfonyl)benzyl)amino)phenyl)acrylamide], for which the IC50 in assay [1] is less than 1000 nM; in assay [2] it was not above 1000 nM.

Regarding `O=C(/C=C/c1ccccc1NCc1ccc(-c2nnn[nH]2)cc1)NO` [Example I-96, (E)-3-(2-((4-(1H-tetrazol-5-yl)benzyl)amino)phenyl)-N-hydroxyacrylamide], the IC50 in assay [1] is less than 1000 nM; in assay [2], not above 1000 nM.

Take `O=C(/C=C/c1ccccc1NCc1cccc(N2CCOCC2)c1)NO` [Example I-97, (E)-N-hydroxy-3-(2-((3-morpholinobenzyl)amino)phenyl) acrylamide]: the IC50 in assay [1] is less than 1000 nM; in assay [2], not above 1000 nM.

As for `O=C(/C=C/c1ccccc1NCc1ccnc(N2CCOCC2)c1)NO` [Example I-98, (E)-N-hydroxy-3-(2-(((2-morpholinopyridin-4-yl)methyl)amino)phenyl)acrylamide], the IC50 in assay [1] was less than 1000 nM; in assay [2], not above 1000 nM.

`CS(=O)(=O)c1cccc(CNc2ccccc2/C=C/C(=O)NO)c1` [Example I-100, (E)-N-hydroxy-3-(2-((3-(methylsulfonyl)benzyl)amino)phenyl)acrylamide]: the IC50 in assay [1] was less than 1000 nM; in assay [2], not above 1000 nM.

For the compound `O=C(/C=C/c1ccccc1NCc1cccc(CN2CCOCC2)c1)NO` [Example I-101, (E)-N-hydroxy-3-(2-((3-(morpholinomethyl)benzyl)amino)phenyl)acrylamide], the IC50 in assay [1] is less than 1000 nM; in assay [2] it was not above 1000 nM.

As to `O=C(/C=C/c1ccccc1NCc1ccc2nccn2c1)NO` [Example I-103, (E)-N-hydroxy-3-(2-((imidazo[1,2-a]pyridin-6-ylmethyl)amino)phenyl)acrylamide], the IC50 in assay [1] is less than 1000 nM; in assay [2] it was not above 1000 nM.

Take `O=C(/C=C/c1ccccc1NCc1c[nH]nc1-c1ccc(C(F)(F)F)cc1)NO` [Example I-104]: the values for the IC50 in assay [1] and in assay [2] were less than 1000 nM and not above 1000 nM, respectively.

For the compound `NC(=O)CCc1cccc(C(=O)Nc2ccccc2/C=C/C(=O)NO)c1` [Example I-107, (E)-3-(3-amino-3-oxopropyl)-N-(2-(3-(hydroxyamino)-3-oxoprop-1-en-1-yl)phenyl)benzamide], the values for the IC50 in assay [1] and in assay [2] were less than 1000 nM and not above 1000 nM, respectively.

As to `O=C(/C=C/c1ccccc1N1CCC2(CCNC2)C1)NO` (stereo not shown) [Example I-113, (E)-3-(2-(2,7-diazaspiro[4.4]nonan-2-yl)phenyl)-N-hydroxyacrylamide 2,2,2-trifluoroacetate], the results for the IC50 in assay [1] and in assay [2] were less than 1000 nM and not above 1000 nM, respectively.

As to `O=C(/C=C/c1ccccc1N1CCC2(CCNCC2)C1)NO` [Example I-115, (E)-3-(2-(2,8-diazaspiro[4.5]decan-2-yl)phenyl)-N-hydroxyacrylamide 2,2,2-trifluoroacetate], the IC50 in assay [1] was less than 1000 nM; in assay [2], not above 1000 nM.

As for `O=C(/C=C/c1ccncc1NC(=O)c1cccc(C(F)(F)F)c1)NO` [Example I-123, (E)-N-(4-(3-(hydroxyamino)-3-oxoprop-1-enyl)pyridin-3-yl)-3-(trifluoromethyl)benzamide], the half-maximal inhibitory concentration (IC50) in assay [1] was less than 1000 nM; in assay [2], not above 1000 nM.

For `Cc1cc(C(=O)NC2CCN(c3ccccc3/C=C/C(=O)NO)CC2)n[nH]1` [Example I-134, (E)-N-(1-(2-(3-(hydroxyamino)-3-oxoprop-1-en-1-yl)phenyl)piperidin-4-yl)-5-methyl-1H-pyrazole-3-carboxamide], the IC50 was less than 1000 nM in assay [1] and not above 1000 nM in assay [2].

In the case of `O=C(/C=C/c1ccccc1N1CCC(NC(=O)c2ccnn2C(F)F)CC1)NO` [Example I-148], the results for the IC50 in assay [1] and in assay [2] were less than 1000 nM and not above 1000 nM, respectively.

Consider `O=C(/C=C/c1ccccc1N1CCC(NC(=O)c2ccc3[nH]ccc3c2)CC1)NO` [Example I-153, (E)-N-(1-(2-(3-(hydroxyamino)-3-oxoprop-1-en-1-yl)phenyl)piperidin-4-yl)-1H-indole-5-carboxamide], for which the IC50 is less than 1000 nM in assay [1] and not above 1000 nM in assay [2].

`O=C(/C=C/c1ccccc1N1CCN(Cc2nccs2)CC1)NO` [Example I-170, (E)-N-hydroxy-3-(2-(4-(thiazol-2-ylmethyl)piperazin-1-yl)phenyl)acrylamide]: the IC50 in assay [1] is less than 1000 nM; in assay [2], not above 1000 nM.

As for `O=C(/C=C/c1ccccc1N1CCN(Cc2cccnc2)CC1)NO` [Example I-179, (E)-N-hydroxy-3-(2-(4-(pyridin-3-ylmethyl)piperazin-1-yl)phenyl)acrylamide], the IC50 in assay [1] is less than 1000 nM; in assay [2] it was not above 1000 nM.

For the compound `Cn1cncc1CN1CCN(c2ccccc2/C=C/C(=O)NO)CC1` [Example I-180, (E)-N-hydroxy-3-(2-(4-((1-methyl-1H-imidazol-5-yl)methyl)piperazin-1-yl)phenyl)acrylamide], the figures for the IC50 in assay [1] and in assay [2] were less than 1000 nM and not above 1000 nM, respectively.

Consider `O=C(/C=C/c1ccccc1N1CCN(Cc2ccc(N3CCCC3)nc2)CC1)NO` [Example I-182, (E)-N-hydroxy-3-(2-(4-((6-(pyrrolidin-1-yl)pyridin-3-yl)methyl)piperazin-1-yl)phenyl)acrylamide], for which the IC50 in assay [1] is less than 1000 nM; in assay [2], not above 1000 nM.

As to `Cc1cc(CN2CCN(c3ccccc3/C=C/C(=O)NO)CC2)n(C)n1` [Example I-183, (E)-3-(2-(4-((1,3-dimethyl-1H-pyrazol-5-yl)methyl)piperazin-1-yl)phenyl)-N-hydroxyacrylamide], the IC50 in assay [1] is less than 1000 nM; in assay [2], not above 1000 nM.

For `Cc1ncsc1C(=O)N1CCN(c2ccccc2/C=C/C(=O)NO)CC1` [Example I-200, (E)-N-hydroxy-3-(2-(4-(4-methylthiazole-5-carbonyl)piperazin-1-yl)phenyl)acrylamide], the values for the IC50 in assay [1] and in assay [2] were less than 1000 nM and not above 1000 nM, respectively.

`O=C(/C=C/c1ccccc1N1CCN(C(=O)c2cnn3c2OCCC3)CC1)NO` [Example I-204, (E)-3-(2-(4-(6,7-dihydro-5H-pyrazolo[5,1-b][1,3]oxazine-3-carbonyl)piperazin-1-yl)phenyl)-N-hydroxyacrylamide]: the IC50 in assay [1] was less than 1000 nM; in assay [2] it was not above 1000 nM.

`O=C(/C=C/c1ccccc1N1CCN(C(=O)c2cn[nH]c2)CC1)NO` [Example I-206]: the IC50 in assay [1] is less than 1000 nM; in assay [2] it was not above 1000 nM.

On to `O=C(/C=C/c1ccccc1N1CCN(C(=O)c2ccc3[nH]ccc3c2)CC1)NO` [Example I-208, (E)-3-(2-(4-(1H-indole-5-carbonyl)piperazin-1-yl)phenyl)-N-hydroxyacrylamide], for which the IC50 in assay [1] was less than 1000 nM; in assay [2], not above 1000 nM.

Consider `Cn1ccc(S(=O)(=O)NC2CCN(c3ccccc3/C=C/C(=O)NO)CC2)n1` [Example I-219, (E)-N-hydroxy-3-(2-(4-((1-methyl-1H-pyrazole)-3-sulfonamido)piperidin-1-yl)phenyl)acrylamide], for which the IC50 is less than 1000 nM in assay [1] and not above 1000 nM in assay [2].
